{
  "source": "patent US6459017B1",
  "about": "“Iris transformation method” (The State of Oregon Acting By and Through the State Board …, priority 2000, dated 2002)",
  "key": {"[1]": {"test_system": "non-transformed iris cells", "test": "Evaluation of selection agents: growth suppression of non-transformed iris suspension-cultured cells on MS-C medium", "type": "cell-based, Iris germanica", "settings": "for inhibition of cell growth scored visually: preliminary experiments, five concentrations", "method": "Evaluation of selection agents. […] To determine the efficacy of several commonly used agents for selecting transformed iris cells, the following substances were tested: five antibiotics (methotrexate, hygromycin, geneticin (G418), gentamycin, and phleomycin); three herbicides (glyphosate [N-(Phosphonomethyl)glycine] (Monsanto, St. Louis, Mo.), chlorsulfuron [2-Chloro-N-[[(methoxy-6-methyl-1,3,5-triazin-2-yl)amino]carbonyl]benzenesulfonamide] (E.I. Du Pont de Nemours & Co., Inc., Agricultural Products Dept., Wilmington, Del.) and glufosinate-ammonium (Basta; Hoechst Canada, Inc., Regina, Saskatchewan, Canada)); and one amino acid analog (4-methyl-tryptophan) (Sigma).\nThe liquid MS-L medium was removed from a three-week-old iris suspension culture and the cells spread on Whatman No. 1 filter papers (42.5 mm diameter) in small culture plates (60 mm×15 mm), over MS-C medium [MS-L medium with 3 g·L^−1 Phytagel (Sigma Chem. Co., St. Louis, Mo.), as described in Examples 1 and 2] containing increasing amounts of the selection agent. Plates were incubated for three weeks in the dark at 25° C. In preliminary experiments, five concentrations of each selection agent were tested and inhibition of cell growth was scored visually.\nFresh weights of resultant tissue were measured and mean values, expressed as a percentage of growth by controls (no selection agent). At least five plates were used for each concentration of selection agent."}, "[2]": {"test_system": "suspension-cultured cells of Iris germanica", "test": "Effect of Kin and NAA in MS-I medium on regeneration potential of differentiated clumps", "type": "cell-based", "settings": "6 weeks on MS-D with 1.25 μM BA", "method": "Effect of Kin and NAA, a/one and in combination, in MS-I medium. To induce plant morphogenesis from suspension-cultured cells, 16 different combinations of NAA (0.0, 0.5, 2.5, and 12.5 μM) and Kin (0.0, 2.5, 12.5, and 62.5 μM) were evaluated. A 0.5-mL aliquot of the resuspended cells was inoculated on each 15×60 mm plastic plate containing 20 mL MS-I medium with different combinations of Kin and NAA. The cells were spread with a spoon-like spatula to form a uniform layer on the surface of MS-I medium. The plates were sealed with Parafilm® and incubated in the dark at 25° C. The number of differentiated clumps was recorded after five weeks. The clumps were collected and grouped into four size classes: large (>10 mm), medium (5 to 10 mm), small (2 to 5 mm) and very small (<2 mm). The regeneration potential of differentiated clumps was assessed by randomly sampling 30 to 60 clumps from each size class and transferring them to three to six Magenta GA-7 vessels (Sigma Chem. Co., St. Louis, Mo.) containing 50 mL of MS-D medium (Table 1) supplemented with 1.25 μM BA. They were then incubated under light (50 μmol m^−2 s^−1) at 23° C. for six weeks. The total number of regenerating clumps (i.e., differentiated clumps that continued to grow and develop on MS-D medium) was counted, and percentages of regenerating clumps that developed shoots only or plantlets (rooted shoots derived from somatic embryos) were recorded. The regenerated shoots and plantlets were transferred to MS-R medium (Table 1) to promote root development. Each Kin/NAA combination was evaluated in five plates per experiment; the entire experiment was repeated three times."}, "[3]": {"test_system": "leaf samples from non-transformed iris plants", "test": "Leaf-bleach assay with paromomycin", "design": "species or system Iris germanica", "settings": "200 mg·L^−1 paromomycin; leaf samples from control (non-transgenic) plants; five days", "method": "Functional assay of NPTII genes. To test the NPTII expression in transformed iris plants, the leaf-bleach assay was carried out according to Cheng et al. (Plant Physiol., 115:971-980, 1997), with minor modifications described below. Four pieces (≈7-mm) were cut from the second youngest leaf of each plant approximately one month after establishment in growing medium in the greenhouse. One leaf piece was placed in 1 mL of solution containing 25 mg·L^−1 benomyl fungicide [methyl 1-(butylcarbamoyl)-2 benzimidazolecarbamate] (Hi-Yield Chem. Co., Bonham, Tex.) and 0.01% Triton X-100 (Sigma), in a well of 24-well culture plate, as a control. Each of the remaining three pieces were placed in 1 mL of the same solution with either 50, 100, or 200 mg·L^−1 paromomycin (Sigma). Leaf samples from the non-transformed iris plants at a similar developmental stage were used as a negative control. The samples were vacuum-infiltrated for 10 minutes. The plates were then sealed with Parafilm and incubated for five days at 23° C. with a 16 hours photoperiod of 50 μmol·m^−2·s^−1 provided by cool-white fluorescent lamps. In preliminary assays, G418 and hygromycin were also tested, the latter for the functional expression of the hpt gene. The response to all three antibiotics was very similar, so paromomycin was selected to assay the rest of the putative transgenic iris plants because it was least expensive."}, "[4]": {"settings": "2.5 μM in MS-I medium (main effect)"}, "[5]": {"settings": "12.5 μM in MS-I medium (main effect)"}, "[6]": {"settings": "62.5 μM in MS-I medium (main effect)"}, "[7]": {"settings": "0.5 μM in MS-I medium (main effect)"}},
  "data": [
    {"molecule": "Cc1cccc2[nH]cc(C[C@H](N)C(=O)O)c12", "note": "[4-methyl-tryptophane, 4-methyl-tryptophan]", "values": [
      {"measurement": "inhibition of cell growth scored visually", "setting": "[1]", "value": "did not clearly inhibit growth"}
    ]},
    {"molecule": "CP(=O)(O)CCC(N)C(=O)O", "note": "(centres unmarked) [Basta, glufosinate-ammonium]", "values": [
      {"measurement": "inhibition at 10 µg/mL", "setting": "[1]; Iris germanica, 504 h, read-out: cell growth inhibited", "value": "~70", "unit": "%"}
    ]},
    {"molecule": "c1coc(CNc2ncnc3[nH]cnc23)c1", "note": "[KIN, kinetin]", "values": [
      {"measurement": "Regenerating clumps (%)", "setting": "[2]; [4]", "value": 41, "unit": "%"},
      {"measurement": "Regenerating clumps developing PLANTLETS (%)", "setting": "[2]; [4]", "value": 96, "unit": "%"},
      {"measurement": "Regenerating clumps developing SHOOTS ONLY (%)", "setting": "[2]; [4]", "value": 5, "unit": "%"},
      {"measurement": "Regenerating clumps (%)", "setting": "[2]; [5]", "value": 44, "unit": "%"},
      {"measurement": "Regenerating clumps developing PLANTLETS (%)", "setting": "[2]; [5]", "value": 89, "unit": "%"},
      {"measurement": "Regenerating clumps developing SHOOTS ONLY (%)", "setting": "[2]; [5]", "value": 12, "unit": "%"},
      {"measurement": "Regenerating clumps (%)", "setting": "[2]; [6]", "value": 45, "unit": "%"},
      {"measurement": "Regenerating clumps developing PLANTLETS (%)", "setting": "[2]; [6]", "value": 88, "unit": "%"},
      {"measurement": "Regenerating clumps developing SHOOTS ONLY (%)", "setting": "[2]; [6]", "value": 12, "unit": "%"}
    ]},
    {"molecule": "O=C(O)Cc1cccc2ccccc12", "note": "[NAA, 1-naphthaleneacetic acid]", "values": [
      {"measurement": "Regenerating clumps (%)", "setting": "[2]; [7]", "value": 56, "unit": "%"},
      {"measurement": "Regenerating clumps developing PLANTLETS (%)", "setting": "[2]; [7]", "value": 94, "unit": "%"},
      {"measurement": "Regenerating clumps developing SHOOTS ONLY (%)", "setting": "[2]; [7]", "value": 6, "unit": "%"},
      {"measurement": "Regenerating clumps (%)", "setting": "[2]; [4]", "value": 55, "unit": "%"},
      {"measurement": "Regenerating clumps developing PLANTLETS (%)", "setting": "[2]; [4]", "value": 89, "unit": "%"},
      {"measurement": "Regenerating clumps developing SHOOTS ONLY (%)", "setting": "[2]; [4]", "value": 11, "unit": "%"},
      {"measurement": "Regenerating clumps (%)", "setting": "[2]; [5]", "value": 33, "unit": "%"},
      {"measurement": "Regenerating clumps developing PLANTLETS (%)", "setting": "[2]; [5]", "value": 94, "unit": "%"},
      {"measurement": "Regenerating clumps developing SHOOTS ONLY (%)", "setting": "[2]; [5]", "value": 7, "unit": "%"}
    ]},
    {"molecule": "COc1nc(C)nc(NC(=O)NS(=O)(=O)c2ccccc2Cl)n1", "note": "[chlorsulfuron, 2-Chloro-N-[[(methoxy-6-methyl-1,3,5-triazin-2-yl)amino]carbonyl]benzenesulfonamide]", "values": [
      {"measurement": "inhibition at 0.5 µg/mL", "setting": "[1]; Iris germanica, 504 h, 0.5 mg·L^−1, three weeks on MS-C medium, read-out: cell growth inhibited", "value": "~90", "unit": "%"}
    ]},
    {"molecule": "O=C(O)CNCP(=O)(O)O", "note": "[glyphosate, N-(Phosphonomethyl)glycine]", "values": [
      {"measurement": "inhibition of cell growth scored visually", "setting": "[1]", "value": "did not clearly inhibit growth"}
    ]},
    {"molecule": "CN(Cc1cnc2nc(N)nc(N)c2n1)c1ccc(C(=O)N[C@@H](CCC(=O)O)C(=O)O)cc1", "note": "[methotrexate]", "values": [
      {"measurement": "inhibition at 0.05 µg/mL", "setting": "[1]; Iris germanica, 504 h, 0.05 mg·L^−1, three weeks on MS-C medium, read-out: cell growth inhibited", "value": "~80", "unit": "%"}
    ]},
    {"molecule": "NC[C@@H]1O[C@H](O[C@H]2[C@@H](O)[C@H](O[C@@H]3[C@@H](O)[C@H](N)C[C@H](N)[C@H]3O[C@H]3O[C@H](CO)[C@@H](O)[C@H](O)[C@H]3N)O[C@@H]2CO)[C@H](N)[C@@H](O)[C@@H]1O", "note": "[paromomycin]", "values": [
      {"measurement": "leaf bleaching", "setting": "[3]", "value": "almost completely bleached"}
    ]},
    {"molecule": "gentamycin", "values": [
      {"measurement": "inhibition of cell growth scored visually", "setting": "[1]", "value": "did not clearly inhibit growth"}
    ]},
    {"molecule": "phleomycin", "values": [
      {"measurement": "inhibition of cell growth scored visually", "setting": "[1]", "value": "did not clearly inhibit growth"}
    ]}
  ]
}
